According to patent publication US9738634B2, “Heterocyclic amide compound and herbicide” (SYNGENTA PARTICIPATIONS AG, priority 2013, dated 2017):

Columns and labels:
Format in all cases: in vivo
Conditions in all cases: treatment dosage 320 g/ha
chickweed [1] = experiment: Test Example 3: weedkilling efficacy through soil treatment; N: chickweed
In short: (§1)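 Crop and weed responses were judged three weeks after a uniform surface spray of the water-diluted emulsion at the given g/ha rate. Seeds sat beneath about 1.5 cm of sterilized diluvial soil, and boxes stood in a greenhouse at 25 to 30° C.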

wheat [2] = experiment: Test Example 4: foliar treatment, effect on crop; e: wheat
In short: (§2)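 Seeds are spot-sown into sterilized diluvial soil and covered with about 1.5 cm of soil. After 14 days' greenhouse growth at 25 to 30° C, plants are sprayed on stems and leaves with diluted emulsion at the stated g/ha rate, then scored at 3 weeks.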

birds-eye speedwell = experiment: Test Example 4: weedkilling efficacy by foliar treatment; p: birds-eye speedwell
In short: as §2

black-grass [3] = experiment: Test Example 3: weedkilling efficacy through soil treatment; H: black-grass
In short: as §1

black-grass [4] = experiment: Test Example 4: weedkilling efficacy by foliar treatment; H: black-grass
In short: as §2

common wind-grass [5] = experiment: Test Example 3: weedkilling efficacy through soil treatment; J: common wind-grass
In short: as §1

crabgrass [6] = experiment: Test Example 4: weedkilling efficacy by foliar treatment; D: crabgrass
In short: as §2

wild oat [7] = experiment: Test Example 3: weedkilling efficacy through soil treatment; G: wild oat
In short: as §1

Indian mallow [8] = experiment: Test Example 4: weedkilling efficacy by foliar treatment; K: Indian mallow
In short: as §2

green foxtail [9] = experiment: Test Example 3: weedkilling efficacy through soil treatment; E: green foxtail
In short: as §1

directly sown rice [10] = experiment: Test Example 4: foliar treatment, effect on crop; b: directly sown rice
In short: as §2

transplanted rice = experiment: Test Example 1: preemergent weed treatment in the submerged state, effect on crop; a: transplanted rice
In short: (§3)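 Pots of alluvial soil were flooded to a 4 cm depth. Mixed weed seeds were sown and 2.5 leaf-stage rice seedlings transplanted. On sowing day, water-diluted emulsion was applied to the water surface (dose in g/ha). After 3 weeks at 25–30 °C, effects were rated.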

beet [11] = experiment: Test Example 4: foliar treatment, effect on crop; f: beet
In short: as §2

chickweed [12] = experiment: Test Example 4: weedkilling efficacy by foliar treatment; N: chickweed
In short: as §2

oval-leafed pondweed [13] = experiment: Test Example 1: weedkilling efficacy, preemergent weed treatment in the submerged state; C: oval-leafed pondweed
In short: as §3

beet [14] = experiment: Test Example 3: soil treatment, effect on crop; f: beet
In short: as §1

barnyard grass [15] = experiment: Test Example 4: weedkilling efficacy by foliar treatment; F: barnyard grass
In short: as §2

fig-leafed goosefoot [16] = experiment: Test Example 4: weedkilling efficacy by foliar treatment; M: fig-leafed goosefoot
In short: as §2

soybean [17] = experiment: Test Example 3: soil treatment, effect on crop; d: soybean
In short: as §1

bulrush [18] = experiment: Test Example 2: weedkilling efficacy, growth period weed treatment in the submerged state; B: bulrush
In short: (§4)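 Weeds treated at the 1-2 leaf stage by application of diluted emulsion onto floodwater (4 cm depth, alluvial soil) at specified g/ha. Grown in greenhouse at 25 to 30° C; herbicidal effect rated three weeks after treatment.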

rapeseed [19] = experiment: Test Example 4: foliar treatment, effect on crop; g: rapeseed
In short: as §2

barnyard grass [20] = experiment: Test Example 1: weedkilling efficacy, preemergent weed treatment in the submerged state; A: barnyard grass
In short: as §3

corn [21] = experiment: Test Example 3: soil treatment, effect on crop; c: corn
In short: as §1

wheat [22] = experiment: Test Example 3: soil treatment, effect on crop; e: wheat
In short: as §1

oval-leafed pondweed [23] = experiment: Test Example 2: weedkilling efficacy, growth period weed treatment in the submerged state; C: oval-leafed pondweed
In short: as §4

Indian mallow [24] = experiment: Test Example 3: weedkilling efficacy through soil treatment; K: Indian mallow
In short: as §1

common wind-grass [25] = experiment: Test Example 4: weedkilling efficacy by foliar treatment; J: common wind-grass
In short: as §2

directly sown rice [26] = experiment: Test Example 3: soil treatment, effect on crop; b: directly sown rice
In short: as §1

Italian ryegrass [27] = experiment: Test Example 3: weedkilling efficacy through soil treatment; I: Italian ryegrass
In short: as §1

redroot pigweed [28] = experiment: Test Example 4: weedkilling efficacy by foliar treatment; L: redroot pigweed
In short: as §2

green foxtail [29] = experiment: Test Example 4: weedkilling efficacy by foliar treatment; E: green foxtail
In short: as §2

catchweed = experiment: Test Example 4: weedkilling efficacy by foliar treatment; O: catchweed
In short: as §2

barnyard grass [30] = experiment: Test Example 2: weedkilling efficacy, growth period weed treatment in the submerged state; A: barnyard grass
In short: as §4

corn [31] = experiment: Test Example 4: foliar treatment, effect on crop; c: corn
In short: as §2

soybean [32] = experiment: Test Example 4: foliar treatment, effect on crop; d: soybean
In short: as §2

Italian ryegrass [33] = experiment: Test Example 4: weedkilling efficacy by foliar treatment; I: Italian ryegrass
In short: as §2

wild oat [34] = experiment: Test Example 4: weedkilling efficacy by foliar treatment; G: wild oat
In short: as §2

crabgrass [35] = experiment: Test Example 3: weedkilling efficacy through soil treatment; D: crabgrass
In short: as §1

redroot pigweed [36] = experiment: Test Example 3: weedkilling efficacy through soil treatment; L: redroot pigweed
In short: as §1

fig-leafed goosefoot [37] = experiment: Test Example 3: weedkilling efficacy through soil treatment; M: fig-leafed goosefoot
In short: as §1

bulrush [38] = experiment: Test Example 1: weedkilling efficacy, preemergent weed treatment in the submerged state; B: bulrush
In short: as §3

barnyard grass [39] = experiment: Test Example 3: weedkilling efficacy through soil treatment; F: barnyard grass
In short: as §1

rapeseed [40] = experiment: Test Example 3: soil treatment, effect on crop; g: rapeseed
In short: as §1

Compound: CC1=C(c2ccccc2)C(=O)N(C(C)(C)C(=O)Nc2cc(F)nc(F)c2)CO1 [B-4-04]
- N (chickweed) weedkilling efficacy grade (chickweed [1]): 4 (weed kill ratio 70% or more, less than 90%)
- e (wheat) effect on crop grade (wheat [2]): 4 (weed kill ratio 70% or more, less than 90%)
- P (birds-eye speedwell) weedkilling efficacy grade (birds-eye speedwell): 4 (weed kill ratio 70% or more, less than 90%)
- H (black-grass) weedkilling efficacy grade (black-grass [3]): 5 (weed kill ratio 90% or more, (practically complete withering))
- H (black-grass) weedkilling efficacy grade (black-grass [4]): 4 (weed kill ratio 70% or more, less than 90%)
- J (common wind-grass) weedkilling efficacy grade (common wind-grass [5]): 5 (weed kill ratio 90% or more, (practically complete withering))
- D (crabgrass) weedkilling efficacy grade (crabgrass [6]): 4 (weed kill ratio 70% or more, less than 90%)
- G (wild oat) weedkilling efficacy grade (wild oat [7]): 0 (weed kill ratio 5% or less (practically no effect))
- K (Indian mallow) weedkilling efficacy grade (Indian mallow [8]): 5 (weed kill ratio 90% or more, (practically complete withering))
- E (green foxtail) weedkilling efficacy grade (green foxtail [9]): 5 (weed kill ratio 90% or more, (practically complete withering))
- b (directly sown rice) effect on crop grade (directly sown rice [10]): 4 (weed kill ratio 70% or more, less than 90%)
- a (transplanted rice) effect on crop grade (transplanted rice): 0 (weed kill ratio 5% or less (practically no effect))
- f (beet) effect on crop grade (beet [11]): 4 (weed kill ratio 70% or more, less than 90%)
- N (chickweed) weedkilling efficacy grade (chickweed [12]): 3 (weed kill ratio 40% or more, less than 70%)
- C (oval-leafed pondweed) weedkilling efficacy grade (oval-leafed pondweed [13]): 5 (weed kill ratio 90% or more, (practically complete withering))
- f (beet) effect on crop grade (beet [14]): 2 (weed kill ratio 20% or more, less than 40%)
- F (barnyard grass) weedkilling efficacy grade (barnyard grass [15]): 4 (weed kill ratio 70% or more, less than 90%)
- M (fig-leafed goosefoot) weedkilling efficacy grade (fig-leafed goosefoot [16]): 4 (weed kill ratio 70% or more, less than 90%)
- d (soybean) effect on crop grade (soybean [17]): 0 (weed kill ratio 5% or less (practically no effect))
- B (bulrush) weedkilling efficacy grade (bulrush [18]): 5 (weed kill ratio 90% or more, (practically complete withering))
- g (rapeseed) effect on crop grade (rapeseed [19]): 3 (weed kill ratio 40% or more, less than 70%)
- A (barnyard grass) weedkilling efficacy grade (barnyard grass [20]): 5 (weed kill ratio 90% or more, (practically complete withering))
- c (corn) effect on crop grade (corn [21]): 0 (weed kill ratio 5% or less (practically no effect))
- e (wheat) effect on crop grade (wheat [22]): 0 (weed kill ratio 5% or less (practically no effect))
- C (oval-leafed pondweed) weedkilling efficacy grade (oval-leafed pondweed [23]): 5 (weed kill ratio 90% or more, (practically complete withering))
- K (Indian mallow) weedkilling efficacy grade (Indian mallow [24]): 0 (weed kill ratio 5% or less (practically no effect))
- J (common wind-grass) weedkilling efficacy grade (common wind-grass [25]): 4 (weed kill ratio 70% or more, less than 90%)
- b (directly sown rice) effect on crop grade (directly sown rice [26]): 3 (weed kill ratio 40% or more, less than 70%)
- I (Italian ryegrass) weedkilling efficacy grade (Italian ryegrass [27]): 5 (weed kill ratio 90% or more, (practically complete withering))
- L (redroot pigweed) weedkilling efficacy grade (redroot pigweed [28]): 3 (weed kill ratio 40% or more, less than 70%)
- E (green foxtail) weedkilling efficacy grade (green foxtail [29]): 4 (weed kill ratio 70% or more, less than 90%)
- O (catchweed) weedkilling efficacy grade (catchweed): 4 (weed kill ratio 70% or more, less than 90%)
- A (barnyard grass) weedkilling efficacy grade (barnyard grass [30]): 5 (weed kill ratio 90% or more, (practically complete withering))
- c (corn) effect on crop grade (corn [31]): 1 (weed kill ratio 5% or more, less than 20%)
- d (soybean) effect on crop grade (soybean [32]): 1 (weed kill ratio 5% or more, less than 20%)
- I (Italian ryegrass) weedkilling efficacy grade (Italian ryegrass [33]): 4 (weed kill ratio 70% or more, less than 90%)
- G (wild oat) weedkilling efficacy grade (wild oat [34]): 2 (weed kill ratio 20% or more, less than 40%)
- D (crabgrass) weedkilling efficacy grade (crabgrass [35]): 5 (weed kill ratio 90% or more, (practically complete withering))
- L (redroot pigweed) weedkilling efficacy grade (redroot pigweed [36]): 3 (weed kill ratio 40% or more, less than 70%)
- M (fig-leafed goosefoot) weedkilling efficacy grade (fig-leafed goosefoot [37]): 3 (weed kill ratio 40% or more, less than 70%)
- B (bulrush) weedkilling efficacy grade (bulrush [38]): 5 (weed kill ratio 90% or more, (practically complete withering))
- F (barnyard grass) weedkilling efficacy grade (barnyard grass [39]): 5 (weed kill ratio 90% or more, (practically complete withering))
- g (rapeseed) effect on crop grade (rapeseed [40]): 4 (weed kill ratio 70% or more, less than 90%)
